The record followed here is patent US11142520B2, “LDHA activity inhibitors” (ARCTIC PHARMA AS, priority 2017, dated 2021).

One assay addresses LDHB (Homo sapiens (Human), UniProt P07195). Description: Coupled diaphorase assay, LDHB. The note with it: lactate to pyruvate direction, 6 nM LDHB. The assay is classed as biochemical. The text has this:
(§1) The inhibitory properties of the compounds were investigated using a coupled enzyme assay that links the lactate dehydrogenase (LDH) reaction to the production of fluorescent resorutin by diaphorase.
(§2) Human lactate dehydrogenases (LDH) catalyze the reversible interconversion between pyruvate and lactate. LDH is capable of catalyzing both the forward (pyruvate to lactate) and the reverse (lactate to pyruvate) reaction, using either NADH or NAD^+ as a cofactor. The reaction proceeds in either direction dependent on various factors, such as substrate availability, the presence of necessary cofactors, temperature and pH. Different isoforms (LDH A, B, and C) of the enzyme favor different reaction directions—LDHA prefers the conversion from pyruvate to lactate, whereas LDHB preferentially oxidizes lactate to pyruvate.
(§3) The coupled assay relies on the oxidation of NAD^+ to NADH throughout the conversion of lactate to pyruvate by LDH (isoforms A, B and C). The produced NADH serves as cofactor in the diaphorase reaction, which reduces non-fluorescent resazurin to fluorescent resorufin. Therefore, the assay indirectly monitors the rate of pyruvate production. Although the consumption of NADH can be directly monitored due to the intrinsic fluorescence of the molecule (excitation: 340 nm, emission: 460 nm) there are problems linked to the direct readout method. […] Shifting the assay to longer wavelengths by coupling the LDH reaction to the conversion of resazurin to fluorescent resorufin by diaphorase reduces this compound interference. The assay direction was thus chosen to provide a robust and reliable assay.
Applying the LDHA reaction in the preferred direction for the conversion of pyruvate to lactate under oxidation of NADH to NAD^+ would necessitate running the LDHA reaction to about 80% completion and adding the diaphorase assay reagents afterwards in order to avoid enzyme competition for NADH.
(§4) The controls allowed for the calculation of the percentage inhibition for each data point. […] Enzyme solution leading to final concentrations of 4-7 nM LDHA or 6 nM LDHB, as well as 0.2 U/ml diaphorase in the reaction well was dispensed into 384-well plates (Greiner bio-one) using a CyBi®-SELMA robotic pipettor. Compound dilutions and the enzyme were incubated for at least 20 min at room temperature. […] The reaction was quenched by the addition of a stop solution (final concentrations: 20 mM EDTA, 400 mM NaCl, 40 mM pyruvate). Fluorescence was read out after 5 min of incubation at an excitation wavelength of 560 nm and an emission wavelength of 590 nm on a Perkin Elmer Victor X plate reader. […]
(§5) Fluorescence data was normalized to DMSO and inhibition controls resulting in percentage inhibition for every compound concentration. Dose response curves were fitted in KaleidaGraph (www.synergy.com) or Dotmatics software package (www.dotmatics.com) using a standard 4-parameter fit (Levenberg-Marquardt fitting procedure), resulting in IC50 values for the test compounds.

The target of another assay is LDHA (Homo sapiens (Human), UniProt P00338). Description: Coupled diaphorase assay, LDHA. As to conditions: lactate to pyruvate direction, 4-7 nM LDHA. It counts as biochemical.
Description: as §1, §2
as §3, with “assay. […]” for “assay.”
as §4, with “Compounds were tested in duplicates using 2-fold, 3-fold or 4-fold serial dilutions including 11 individual concentrations, starting from 5000 μM to 30 μM. […] The controls” for “The controls”
as §5

Chain of LDHB (P07195 whole entry): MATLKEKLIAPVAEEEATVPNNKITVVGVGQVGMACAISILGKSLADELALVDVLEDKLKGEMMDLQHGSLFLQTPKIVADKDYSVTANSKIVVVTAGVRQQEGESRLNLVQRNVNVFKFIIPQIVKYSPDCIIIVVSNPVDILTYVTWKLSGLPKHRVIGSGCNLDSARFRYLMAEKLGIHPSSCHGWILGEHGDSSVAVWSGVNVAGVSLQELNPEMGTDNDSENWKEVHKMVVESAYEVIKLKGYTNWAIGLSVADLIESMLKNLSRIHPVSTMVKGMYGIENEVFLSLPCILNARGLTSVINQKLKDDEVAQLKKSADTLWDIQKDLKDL

Take `COC(=O)OC1=C(Sc2cccc(Cl)c2Cl)C(=O)NC(c2ccsc2)(c2cccc(OCC3CCCC3)n2)C1` (stereo not drawn) [Example 12, 6′-(cyclopentylmethoxy)-5-((2,3-dichlorophenyl)thio)-6-oxo-2-(thiophen-3-yl)-1,2,3,6-tetrahydro-[2,2′-bipyridin]-4-yl methyl carbonate]: the IC50 on LDHB and at LDHA was above 100 µM in each case.
Regarding `COCCOC(=O)OC1=C(Sc2cc(Cl)ccc2Cl)C(=O)NC(c2ccc(N3CCOCC3)cc2)(c2ccsc2)C1` (single isomer, unassigned) [Example 17 Enantiomer 2], on LDHA, the IC50 is 0.5 to 10 µM.
As to `CCOC(=O)OC1=C(Sc2cccc(Cl)c2Cl)C(=O)NC(c2ccc(N3CCOCC3)cc2)(c2ccsc2)C1` (stereo not drawn) [Example 15, 5-((2,3-dichlorophcnyl)thio)-2-(4-morpholinophenyI)-6-oxo-2-(thiophcn-3-yl)-1,2,3,6-tetrahydropyridin-4-yl ethyl carbonate], the figures for the half-inhibitory concentration (IC50) on LDHB and at LDHA were above 100 µM and 50 to 100 µM, respectively.
The like results for `O=C1CC(c2ccc(N3CCOCC3)cc2)(c2ccsc2)NC(=O)C1Sc1cccc(Cl)c1Cl` (stereo not drawn) [Example 9, 3-((2,3-dichlorophenyl)thio)-6-(4-morpholinophenyl)-6-(thiophen-3-yl)piperidine-2,4-dione] were, in that order, above 100 µM and 0.5 to 10 µM.
For the compound `CCCCCCCCCCOC(=O)OC1=C(Sc2cc(Cl)ccc2Cl)C(=O)NC(c2ccsc2)(c2cccc(OCC3CCCC3)n2)C1` (stereo not drawn) [Example 16, 6′-(cyclopentylmethoxy)-5-((2,5-dichlorophenyl)thio)-6-oxo-2-(thiophen-3-yl)-1,2,3,6-tetrahydro-[2,2′-bipyridin]-4-yl decyl carbonate], the IC50 at LDHA was above 100 µM.
Consider `O=C1CC(c2cnc(N3CCOCC3)nc2)(c2ccsc2)OC(=O)C1Sc1ccccc1Cl` (stereo not drawn) [Example 23, 3-((2-chlorophenyl)thio)-6-(2-morpholinopyrimidin-5-yl)-6-(thiophen-3-yl)dihydro-2H-pyran-2,4(3H)-dione], for which the IC50 on LDHB and at LDHA was 0.5 to 10 µM throughout.
For the compound `CC(C)(C)C(=O)OC1=C(Sc2cc(Cl)ccc2Cl)C(=O)NC(c2ccc(N3CCOCC3)cc2)(c2ccsc2)C1` (stereo not drawn) [Example 28, 5-((2,5-dichlorophenyl)thio)-2-(4-morpholinophenyl)-6-oxo-2-(thiophen-3-yl)-1,2,3,6-tetrahydropyridin-4-yl pivalate], the IC50 at LDHA lay within 10 to 50 µM.
As to `O=C1NC(c2ccc(N3CCOCC3)cc2)(c2ccsc2)CC(OC(=O)c2ccncc2)=C1Sc1cc(Cl)ccc1Cl` (stereo not drawn) [Example 31, 5-((2,5-dichlorophenyl)thio)-2-(4-morpholinophenyl)-6-oxo-2-(thiophen-3-yl)-1,2,3,6-tetrahydropyridin-4-yl isonicotinate], the IC50 on LDHA was in the range of 0.5 to 10 µM.
Same read-out and setting: as for `COC(=O)OC1=C(Sc2ccccc2Cl)C(=O)OC(c2ccsc2)(c2ccc(Br)cn2)C1` (stereo not drawn) [Example 21, 2-(5-bromopyridin-2-yl)-5-((2-chlorophenyl)thio)-6-oxo-2-(thiophen-3-yl)-3,6-dihydro-2H-pyran-4-yl methyl carbonate], the figure is 10 to 50 µM.
Regarding `O=C1CC(c2ccsc2)(c2ccccn2)OC(=O)C1Sc1ccccc1Cl` (stereo not drawn) [Example 20, 3-((2-chlorophenyl)thio)-6-(pyridin-2-yl)-6-(thiophen-3-yl)dihydro-2H-pyran-2,4(3H)-dione], the IC50 on LDHB and on LDHA was 0.5 to 10 µM in each case.
On to `CC(C)COC(=O)OC1=C(Sc2cc(Cl)ccc2Cl)C(=O)NC(c2ccc(N3CCOCC3)cc2)(c2ccsc2)C1` (stereo not drawn) [Example 26, 5-((2,5-dichlorophenyl)thio)-2-(4-morpholinophenyl)-6-oxo-2-(thiophen-3-yl)-1,2,3,6-tetrahydropyridin-4-yl isobutyl carbonate], for which, on LDHA, the IC50 was 50 to 100 µM.
For the compound `COCCOC(=O)OC1=C(Sc2ccc(Cl)cc2Cl)C(=O)NC(c2ccc(N3CCOCC3)cc2)(c2ccsc2)C1` (stereo not drawn) [Example 30, 5-((2,4-dichlorophenyl)thio)-2-(4-morpholinophenyl)-6-oxo-2-(thiophen-3-yl)-1,2,3,6-tetrahydropyridin-4-yl (2-methoxyethyl) carbonate], the IC50 at LDHB and at LDHA was above 100 µM throughout.
In the case of `COCCOC(=O)OC1=C(Sc2ccccc2Cl)C(=O)OC(c2cnc(N3CCOCC3)nc2)(c2ccsc2)C1` (stereo not drawn) [Example 35, 5-((2-chlorophenyl)thio)-2-(2-morpholinopyrimidin-5-yl)-6-oxo-2-(thiophen-3-yl)-3,6-dihydro-2H-pyran-4-yl (2-methoxyethyl) carbonate], the half-inhibitory concentration (IC50) at LDHA lay within 10 to 50 µM.
Still for that read-out and setting: under `COCCOC(=O)OC1=C(Sc2cc(Cl)ccc2Cl)C(=O)NC(c2ccc(N3CCOCC3)cc2)(c2ccsc2)C1` (racemic) [Example 17, 5-((2,5-dichlorophenyl)thio)-2-(4-morpholinophenyl)-6-oxo-2-(thiophen-3-yl)-1,2,3,6-tetrahydropyridin-4-yl (2-methoxyethyl) carbonate] stands 10 to 50 µM; under `CC(=O)OC1=C(Sc2cc(Cl)ccc2Cl)C(=O)NC(c2ccc(N3CCOCC3)cc2)(c2ccsc2)C1` (stereo not drawn) [Example 27, 5-((2,5-dichlorophenyl)thio)-2-(4-morpholinophenyl)-6-oxo-2-(thiophen-3-yl)-1,2,3,6-tetrahydropyridin-4-yl acetate], 10 to 50 µM.
Regarding `CCCOC(=O)OC1=C(Sc2ccc(F)cc2Cl)C(=O)NC(c2ccc(N3CCOCC3)cc2)(c2ccsc2)C1` (stereo not drawn) [Example 14, 5-((2-chloro-4-fluorophenyl)thio)-2-(4-morpholinophenyl)-6-oxo-2-(thiophen-3-yl)-1,2,3,6-tetrahydropyridin-4-yl propyl carbonate], the IC50 at LDHB and on LDHA was 50 to 100 µM in each case.
With `CCOc1cccc(C2(c3ccsc3)CC(=O)C(Sc3ccc(F)cc3Cl)C(=O)N2)n1` (stereo not drawn) [Example 4, 3-((2-chloro-4-fluorophenyl)thio)-6-(6-ethoxypyridin-2-yl)-6-(thiophen-3-yl)piperidine-2,4-dione], the results for the IC50 at LDHB and at LDHA were above 100 µM and 10 to 50 µM, respectively.
With `COCCOC(=O)OC1=C(Sc2cc(Cl)ccc2Cl)C(=O)NC(c2ccc(N3CCOCC3)cc2)(c2ccsc2)C1` (single isomer, unassigned) [Example 17 Enantiomer 1], at LDHA, the 50% inhibitory concentration (IC50) was 10 to 50 µM.
The same measure, in the same setting: as for `O=C1CC(c2cncnc2)(c2ccsc2)OC(=O)C1Sc1ccccc1Cl` (stereo not drawn) [Example 19, 3-((2-chlorophenyl)thio)-6-(pyrimidin-5-yl)-6-(thiophen-3-yl)dihydro-2H-pyran-2,4(3H)-dione], the figure is 0.5 to 10 µM; as for `O=C1CC(c2ccc(N3CCOCC3)cc2)(c2ccsc2)NC(=O)C1Sc1cc(Cl)ccc1Cl` (single isomer, unassigned) [Example 10 Enantiomer 1], 0.5 to 10 µM.
Same read-out and setting: under `COCCOC(=O)OC1=C(Sc2cc(Cl)ccc2Cl)C(=O)NC(c2ccsc2)(c2cccc(OCC3CCCC3)n2)C1` (stereo not drawn) [Example 34, 6′-(cyclopentylmethoxy)-5-((2,5-dichlorophenyl)thio)-6-oxo-2-(thiophen-3-yl)-1,2,3,6-tetrahydro-[2,2′-bipyridin]-4-yl (2-methoxyethyl) carbonate] stands above 100 µM.
The same measure, in the same setting: as for `O=C1CC(c2ccc(N3CCOCC3)cc2)(c2ccsc2)NC(=O)C1Sc1cc(Cl)ccc1Cl` (single isomer, unassigned) [Example 10 Enantiomer 2], the figure is 10 to 50 µM.
